# Measured values taken from patent US20110275559A1, “Long-Acting Y2 and/or Y4 Receptor Agonists” (Novo Nordisk A/S, priority 2008, published 2011).
# *1 amine or outer side, *2 acyl side, *3 side chain or, on linkers, in order; H or OH if unused. Where a SMILES comes first, the peptide text is derived from it. Side-chain parts run from the residue outwards. The star is where a group is joined. C20 diacid = O=C(O)CCCCCCCCCCCCCCCCCCC(=O)*; C18 diacid = O=C(O)CCCCCCCCCCCCCCCCC(=O)*; γGlu = O=C(O)[C@H](CCC(=O)[*:2])N[*:1]; Trx = NC[C@H]1CC[C@H](C(=O)O)CC1; AEEA = NCCOCCOCC(=O)O
# Assay: in vivo
# Conditions: Göttingen, minipig, iv
# Protocol: (§1) The mini-pigs had two central venous catheters inserted which were used for intra venous (i.v.) dosing and bloodsampling. Compound was dissolved in 50 mM K2HPO4, 0.05% tween 80, pH=8.0 to a concentration of 180 nmol/ml. The pigs were dosed with 6 nmol compound/kg body weight. […] The blood samples were collected into test tubes containing EDTA buffer for stabilization and kept on ice for max. 20 minutes before centrifugation. The centrifugation procedure to separate plasma was; 4° C., 3000 rpm for 10 minutes. Plasma were collected and immediately transferred to Micronic tubes stored at −20° C. until assayed.
# An additional mini-pig PK assay was used for measuring PK of the compounds of the invention. […] The animals had two central venous catheters inserted which were used for intra venous (i.v.) dosing and blood sampling. Compounds were dissolved in 10 mM Na2HPO4, 150 mM NaCl, 0.01% tween 80, pH=4.0 to concentrations in the range of 40 nmol/ml to 200 nmol/ml. The mini-pigs were dosed i.v. with 10 nmol compound/kg body weight, occasionally other doses such as 4 nmol/kg, 30 nmol/kg or 50 nmol/kg were administered. Each compound was dosed to 3 or 4 mini-pigs, and two compounds may be given simultaneously to the same animal. Blood were sampled pre-dose and 12 times during the first 10 hours post-dose. Blood were furthermore sampled once daily until 13 days post dosing. The blood samples were collected into test tubes containing EDTA buffer, trasylol and Val-Pyr for stabilization and kept on ice for max. 20 minutes. Samples were centrifuged at 4° C., 2000G for 10 minutes to separate plasma. Plasma were collected and immediately transferred to Micronic tubes stored at −20° C. until assayed.
# Plasma samples were analysed by LC-MS on an LTQ-Orbitrap (ThermoFisher Scientific, Bremen) to which Accela HPLC pumps and an autosampler were connected (both from ThermoFisher). […] HPLC was performed on a Jupiter Proteo column (4μ) 90A (50×2.0 mm ID). […] The flow rate was 0.3 ml/min. For analysis of plasma samples, 30 μl plasma was precipitated with 90 μl ethanol. […] The heptane phase was removed after 5 min and the remaining solution was analysed by LC-MS as described above. For construction of plasma standards, compound was spiked to plasma (minipig) at the following concentrations: 1 nM, 2 nM, 5 nM, 10 nM, 20 nM, 50 nM, 100 nM, 200 nM. The plasma standards were treated as the samples. The lower limit of quantification was estimated to 2 nM.
# Non-compartmental analysis (NCA): Plasma concentration-time profiles were analyzed by non-compartmental pharmacokinetics analysis (NCA) using WinNonlin Professional 5.0 (Pharsight Inc., Mountain View, Calif., USA). NCA was performed using the individual plasma concentration-time profiles from each animal.
# For determination of plasma concentration of the PYY and PP peptide derivative or analogues thereof the following Methods 1-4 were used.
# as §1, with “bloodsampling. The compound” for “bloodsampling. Compound”, “to an appropriate” for “to a”, “concentration (e.g. 25-500 nmol/mL).” for “concentration of 180 nmol/ml.”, “dosed intravenously (i.v.) or subcutaneously (s.c.)” for “dosed”, “with between 1 and 30” for “with 6”, “buffer (with Aprotinin 15000 KIE/mL and Val-Pyr 0.30 mM)” for “buffer”
# An additional mini-pig PK assay was used for measuring PK of the compounds of the invention. […] The animals had two central venous catheters inserted which were used for intra venous (i.v.) dosing and blood sampling.
half-life (10 nmol/kg) [h],SMILES,other results
,"CC[C@H](C)[C@H](NC(=O)[C@H](Cc1ccc(O)cc1)NC(=O)[C@H](CCCNC(=N)N)NC(=O)[C@H](CCCNC(=N)N)NC(=O)[C@H](CC(C)C)NC(=O)[C@H](CC(=O)O)NC(=O)[C@H](C)NC(=O)[C@H](C)NC(=O)[C@H](Cc1ccc(O)cc1)NC(=O)[C@H](CCC(N)=O)NC(=O)[C@H](C)NC(=O)[C@H](CCSC)NC(=O)[C@H](CCC(N)=O)NC(=O)[C@H](CCC(=O)O)NC(=O)[C@@H]1CCCN1C(=O)[C@H](CCCCNC(=O)COCCOCCNC(=O)COCCOCCNC(=O)CC[C@H](NC(=O)CCCCCCCCCCCCCCCCC(=O)O)C(=O)O)NC(=O)[C@H](C)NC(=O)[C@H](CC(N)=O)NC(=O)[C@H](CC(=O)O)NC(=O)CNC(=O)[C@@H]1CCCN1C(=O)[C@H](Cc1ccc(O)cc1)NC(=O)[C@@H](NC(=O)[C@@H]1CCCN1C(=O)[C@H](CCC(=O)O)NC(=O)[C@H](CC(C)C)NC(=O)[C@@H]1CCCN1C(=O)[C@H](C)N)C(C)C)C(=O)N[C@@H](CC(N)=O)C(=O)N[C@@H](CCSC)C(=O)N[C@@H](CC(C)C)C(=O)N[C@H](C(=O)N[C@@H](CCCNC(=N)N)C(=O)N1CCC[C@H]1C(=O)N[C@@H](CCCNC(=N)N)C(=O)N[C@@H](Cc1ccc(O)cc1)C(N)=O)[C@@H](C)O [SEQ ID NO: 24, N-epsilon13-[2-(2-{2-[2-(2-{2-[(S)-4-Carboxy-4-(17-carboxyheptadecanoylamino)butyrylamino]ethoxy}ethoxy)acetylamino]-ethoxy}ethoxy)acetyl][Lys13]hPP(1-36)] (H-APLEPVYPGDNAK([AEEA-AEEA-γGlu-C18 diacid])PEQMAQYAADLRRYINMLTRPRY-NH2; N-terminus and C-terminus assumed)",half-life (20 nmol/kg): 3.5 h
,"CC[C@H](C)[C@H](NC(=O)[C@H](Cc1ccc(O)cc1)NC(=O)[C@H](CCCNC(=N)N)NC(=O)[C@H](CCCNC(=N)N)NC(=O)[C@H](CC(C)C)NC(=O)[C@H](CC(=O)O)NC(=O)[C@H](C)NC(=O)[C@H](C)NC(=O)[C@H](Cc1ccc(O)cc1)NC(=O)[C@H](CCC(N)=O)NC(=O)[C@H](C)NC(=O)[C@H](CC(C)C)NC(=O)[C@H](CCC(N)=O)NC(=O)[C@H](CCC(=O)O)NC(=O)[C@@H]1CCCN1C(=O)[C@@H](NC(=O)[C@H](C)NC(=O)[C@H](CC(N)=O)NC(=O)[C@H](CCCCNC(=O)COCCOCCNC(=O)COCCOCCNC(=O)CC[C@H](NC(=O)[C@H]1CC[C@H](CNC(=O)CCCCCCCCCCCCCCCCCCC(=O)O)CC1)C(=O)O)NC(=O)CNC(=O)[C@@H]1CCCN1C(=O)[C@H](Cc1ccc(O)cc1)NC(=O)[C@@H](NC(=O)[C@@H]1CCCN1C(=O)[C@H](CCC(=O)O)NC(=O)[C@H](CC(C)C)NC(=O)[C@@H]1CCCN1)C(C)C)[C@@H](C)O)C(=O)N[C@@H](CC(N)=O)C(=O)N[C@@H](CC(C)C)C(=O)N[C@@H](CC(C)C)C(=O)N[C@H](C(=O)N[C@@H](CCCNC(=N)N)C(=O)N[C@@H](CCC(N)=O)C(=O)N[C@@H](CCCNC(=N)N)C(=O)N[C@@H](Cc1ccc(O)cc1)C(N)=O)[C@@H](C)O [SEQ ID NO: 39, N-epsilon10-[2-(2-{2-[2-(2-{2-[(S)-4-Carboxy-4-({trans-4-[(19-carboxynonadecanoylamino)methyl]cyclohexanecarbonyl}amino)butyrylamino]-ethoxy}ethoxy)acetylamino]ethoxy}ethoxy)acetyl][Lys10,Leu17,Leu30,Gln34]hPP2-36] (H-PLEPVYPGK([AEEA-AEEA-γGlu-Trx-C20 diacid])NATPEQLAQYAADLRRYINLLTRQRY-NH2; N-terminus and C-terminus assumed)","half-life (in vivo, 4 nmol/kg): 32 h"
78,"CC[C@H](C)[C@H](NC(=O)[C@H](Cc1ccc(O)cc1)NC(=O)[C@H](CCCNC(=N)N)NC(=O)[C@H](CCCNC(=N)N)NC(=O)[C@H](CC(C)C)NC(=O)[C@H](CC(=O)O)NC(=O)[C@H](C)NC(=O)[C@H](C)NC(=O)[C@H](Cc1ccc(O)cc1)NC(=O)[C@H](CCC(N)=O)NC(=O)[C@H](C)NC(=O)[C@H](CC(C)C)NC(=O)[C@H](CCC(N)=O)NC(=O)[C@H](CCC(=O)O)NC(=O)[C@@H]1CCCN1C(=O)[C@@H](NC(=O)[C@H](C)NC(=O)[C@H](CC(N)=O)NC(=O)[C@H](CC(=O)O)NC(=O)CNC(=O)[C@@H]1CCCN1C(=O)[C@H](Cc1ccc(O)cc1)NC(=O)[C@@H](NC(=O)[C@@H]1CCCN1C(=O)[C@H](CCC(=O)O)NC(=O)[C@H](CC(C)C)NC(=O)[C@@H]1CCCN1)C(C)C)[C@@H](C)O)C(=O)N[C@@H](CC(N)=O)C(=O)N[C@@H](CC(C)C)C(=O)N[C@@H](CC(C)C)C(=O)N[C@H](C(=O)N[C@@H](CCCNC(=N)N)C(=O)N1CCC[C@H]1C(=O)N[C@@H](CCCCNC(=O)COCCOCCNC(=O)COCCOCCNC(=O)CC[C@H](NC(=O)CCCCCCCCCCCCCCCCC(=O)O)C(=O)O)C(=O)N[C@@H](Cc1ccc(O)cc1)C(N)=O)[C@@H](C)O [SEQ ID NO: 47, N-epsilon35-[2-(2-{2-[2-(2-{2-[(S)-4-Carboxy-4-(17-carboxyheptadecanoylamino)butyrylamino]ethoxy}ethoxy)acetylamino]-ethoxy}ethoxy)acetyl][Leu17,Leu30,Lys35]hPP2-36] (H-PLEPVYPGDNATPEQLAQYAADLRRYINLLTRPK([AEEA-AEEA-γGlu-C18 diacid])Y-NH2)",
88,"CC[C@H](C)[C@H](NC(=O)[C@H](Cc1ccc(O)cc1)NC(=O)[C@H](CCCNC(=N)N)NC(=O)[C@H](CCCCNC(=O)COCCOCCNC(=O)COCCOCCNC(=O)CC[C@H](NC(=O)CCCCCCCCCCCCCCCCC(=O)O)C(=O)O)NC(=O)[C@H](CC(C)C)NC(=O)[C@H](CC(=O)O)NC(=O)[C@H](C)NC(=O)[C@H](C)NC(=O)[C@H](Cc1ccc(O)cc1)NC(=O)[C@H](CCC(N)=O)NC(=O)[C@H](C)NC(=O)[C@H](CC(C)C)NC(=O)[C@H](CCC(N)=O)NC(=O)[C@H](CCC(=O)O)NC(=O)[C@@H]1CCCN1C(=O)[C@@H](NC(=O)[C@H](C)NC(=O)[C@H](CC(N)=O)NC(=O)[C@H](CC(=O)O)NC(=O)CNC(=O)[C@@H]1CCCN1C(=O)[C@H](Cc1ccc(O)cc1)NC(=O)[C@@H](NC(=O)[C@@H]1CCCN1C(=O)[C@H](CCC(=O)O)NC(=O)[C@H](CC(C)C)NC(=O)[C@@H]1CCCN1)C(C)C)[C@@H](C)O)C(=O)N[C@@H](CC(N)=O)C(=O)N[C@@H](CC(C)C)C(=O)N[C@@H](CC(C)C)C(=O)N[C@H](C(=O)N[C@@H](CCCNC(=N)N)C(=O)N1CCC[C@H]1C(=O)N[C@@H](CCCNC(=N)N)C(=O)N[C@@H](Cc1ccc(O)cc1)C(N)=O)[C@@H](C)O [SEQ ID NO: 49, N-epsilon25-[2-(2-{2-[2-(2-{2-[(S)-4-Carboxy-4-(17-carboxyheptadecanoylamino)butyrylamino]ethoxy}ethoxy)acetylamino]-ethoxy}ethoxy)acetyl][Leu17,Lys25,Leu30]hPP2-36] (H-PLEPVYPGDNATPEQLAQYAADLK([AEEA-AEEA-γGlu-C18 diacid])RYINLLTRPRY-NH2)",
